This passage reports viability, T/C and IC50 results from PubChem BioAssay AID1963867 (Molecular Pharmacology Branch, DTP, NCI, 2024).
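Further: spheroids exposed to agents for seven days before reading.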
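Wherever viability, T/C is given: 100% = DMSO vehicle wells so lower means fewer viable cells.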

For the first experiment, the system named is KRAS-mutant PDC tumor spheroid with HUVEC/MSC, viability. Kind of experiment: Anticancer human tumor 327498-153-R-J2-PDC patient-derived uterine carcinosarcoma cell line growth inhibition [KRAS2]. The following applies: compound 0.1 µM; stronger effect = lower value. The source says:
Multicellular complex tumor spheroid response to RAS pathway inhibitors in combination with a targeted agents in patient-derived cell lines with oncogenic KRAS variants from multiple cancer types
A high-throughput screen of multi-cell type tumor spheroids was designed to identify active combinations of targeted small molecules and KRAS pathway inhibitors. Complex spheroids include a stromal component modeled by human endothelial cells (HUVEC) and fibroblasts modeled by human mesenchymal stem cells (MSCs). The concentration ranges selected for each drug and investigational agent were based upon clinically achievable concentrations if the clinical Cmax of the agent was known.
Compounds. The drugs and investigational agents: BI-3406 (NSC825286), BAY-293 (NSC824723), batoprotafib (TNO155; NSC825523), sotorasib (AMG 510; NSC818433), MRTX1257 (NSC819558), elimusertib (BAY 1895344; NSC800525), molibresib (GSK525762; NSC774829), temuterkib (LY3214996; NSC803410), venetoclax (NSC766270), alisertib (NSC759677), olaparib (NSC753686), talazoparib (NSC767125), erdafitinib (NSC781556), ipatasertib (NSC767898), cabozantinib (NSC761068), nintedanib (NSC756659), abemaciclib (NSC768073), docetaxel (NSC628503), trametinib (NSC758246), and sapanisertib (NSC764658) were obtained from the National Cancer Institute (NCI) Developmental Therapeutics Program Chemical Repository. The FDA-approved anticancer drug set is available from the Developmental Therapeutics Program. […] The stock solutions were prepared in dimethyl sulfoxide (DMSO, Sigma-Aldrich, St. Louis, MO, cat. D2650) at 800-fold the tested concentration and stored at -70 degrees C prior to their use. All drugs and investigational agents were tested over a range starting from a high concentration at or near the clinical Cmax and decreasing in half-log increments. If the clinical Cmax for an agent had not been determined, the highest concentration tested was 10 microM.
Cell Culture. All cells were maintained in an incubator at 37 degrees C and 5% CO2 with 95% humidity. The PDC lines were cultured according to standard operating procedures established by the NCI PDMR (https://pdmr.cancer.gov/sops/default.htm). Briefly, all PDCs were thawed and cultured in Matrigel-coated flasks prepared with a working solution of 1X Ham's F-12 nutrient mix, without supplementation (Invitrogen, Waltham, MA, cat. 11765054), 100 U/mL penicillin-streptomycin (Invitrogen, cat. 15140122), and 2.5% Matrigel (Corning Inc., Corning, NY, cat. 354248) for the first three passages. All PDCs were cultured in complete DMEM/F-12 media containing advanced DMEM/F-12 (Invitrogen, cat. 12634028), 4.9% defined fetal bovine serum, heat inactivated (HyClone Laboratories Inc., Logan, UT, cat. SH30070.03HI), 389 ng/mL hydrocortisone (Sigma-Aldrich, cat. H4001), 9.7 ng/mL human EGF recombinant protein (Invitrogen, cat. PHG0313), 23.4 microg/mL adenine (Sigma-Aldrich, cat. A2786), 97.3 U/mL penicillin-streptomycin (Invitrogen, cat. 15140122), 1.9 mM L-glutamine (Invitrogen, cat. 25030081), and 9.7 microM Y-27632 dihydrochloride (Tocris Bioscience, Bristol, United Kingdom, cat. 1254). The PDCs were cultured in complete DMEM/F12 media without 9.7 microM Y-27632 dihydrochloride for at least two passages prior to the screen. The established cell line HOP-62 was cultured in RPMI 1640 medium, HEPES (Invitrogen, cat. 22400105) with 10% defined fetal bovine serum (HyClone Laboratories Inc., cat. SH30070.03) and 2 mM L-glutamine (Invitrogen, cat. 25030081). The pooled donor HUVEC were cultured in endothelial cell growth medium 2 (PromoCell, Heidelberg, Germany, cat. C-22011) and the hMSC were cultured in mesenchymal stem cell growth medium 2 (PromoCell, cat. C-28009). For all experiments, HUVEC and hMSC were used at passages </=5, while the malignant cell lines were used at passages </=15. […]
As for `Cn1ncnc1[C@H]1c2n[nH]c(=O)c3cc(F)cc(c23)N[C@@H]1c1ccc(F)cc1`, the viability, T/C was 22.4% [middle of 5 runs].
Turning to `O=C(c1cc(Cc2n[nH]c(=O)c3ccccc23)ccc1F)N1CCN(C(=O)C2CC2)CC1`, the viability, T/C is 99.3% [middle of 5 runs].

Still in this experiment, the particulars now being: compound 0.316 µM; stronger effect = lower value.
For the molecule `CC(=O)OC12COC1CC(O)C1(C)C(=O)C(O)C3=C(C)C(OC(=O)C(O)C(NC(=O)OC(C)(C)C)c4ccccc4)CC(O)(C(OC(=O)c4ccccc4)C21)C3(C)C` (configuration not stated), the viability, T/C was 7.35% [middle of 5 runs].
For the molecule `CC(C)NCC(C(=O)N1CCN(c2ncnc3c2C(C)CC3O)CC1)c1ccc(Cl)cc1` (configuration not stated), the viability, T/C was 63.1% [middle of 5 runs].
Still for that read-out and setting: with `CC1(C)CCC(CN2CCN(c3ccc(C(=O)NS(=O)(=O)c4ccc(NCC5CCOCC5)c([N+](=O)[O-])c4)c(Oc4cnc5[nH]ccc5c4)c3)CC2)=C(c2ccc(Cl)cc2)C1` the figure was 99.3% [middle of 5 runs]; with `CC1OCC2(CCN(c3cnc(Sc4ccnc(N)c4Cl)c(N)n3)CC2)C1N` (configuration not stated), 59.2% [middle of 19 runs].
For the molecule `CCN1CCN(Cc2ccc(Nc3ncc(F)c(-c4cc(F)c5nc(C)n(C(C)C)c5c4)n3)nc2)CC1`, the viability, T/C was 59.6% [middle of 5 runs].
Still for that read-out and setting: the same measure for `CCNC(=O)CC1N=C(c2ccc(Cl)cc2)c2cc(OC)ccc2-n2c(C)nnc21` (configuration not stated): 77.6% [middle of 5 runs]; for `COc1cc(Nc2ncc3c(n2)-c2ccc(Cl)cc2C(c2c(F)cccc2OC)=NC3)ccc1C(=O)O`: 11.2% [middle of 5 runs].
`COc1cc2nccc(Oc3ccc(NC(=O)C4(C(=O)Nc5ccc(F)cc5)CC4)cc3)c2cc1OC`: the viability, T/C is 97.2% [middle of 5 runs].
As to `Cn1nccc1Nc1nccc(-c2cc3c(s2)C(C)(C)N(CCN2CCOCC2)C3=O)n1`, the viability, T/C is 79.2% [middle of 5 runs].
Regarding `O=C(c1cc(Cc2n[nH]c(=O)c3ccccc23)ccc1F)N1CCN(C(=O)C2CC2)CC1`, the viability, T/C was 93% [middle of 5 runs].

Staying with this experiment, now noted: compound 1 µM; stronger effect = lower value.
Turning to `CC(=O)OC12COC1CC(O)C1(C)C(=O)C(O)C3=C(C)C(OC(=O)C(O)C(NC(=O)OC(C)(C)C)c4ccccc4)CC(O)(C(OC(=O)c4ccccc4)C21)C3(C)C` (configuration not stated), the viability, T/C was 10.6% [middle of 5 runs].
The same measure, in the same setting: with `CC(C)NCC(C(=O)N1CCN(c2ncnc3c2C(C)CC3O)CC1)c1ccc(Cl)cc1` (configuration not stated) the figure was 48.3% [middle of 5 runs]; with `CC1(C)CCC(CN2CCN(c3ccc(C(=O)NS(=O)(=O)c4ccc(NCC5CCOCC5)c([N+](=O)[O-])c4)c(Oc4cnc5[nH]ccc5c4)c3)CC2)=C(c2ccc(Cl)cc2)C1`, 97.8% [middle of 5 runs]; with `CCN1CCN(Cc2ccc(Nc3ncc(F)c(-c4cc(F)c5nc(C)n(C(C)C)c5c4)n3)nc2)CC1`, 58.9% [middle of 5 runs].
On to `CCNC(=O)CC1N=C(c2ccc(Cl)cc2)c2cc(OC)ccc2-n2c(C)nnc21` (configuration not stated), for which the viability, T/C is 64.8% [middle of 5 runs].
On the same count and under the same terms, the same measure for `COc1cc(Nc2ncc3c(n2)-c2ccc(Cl)cc2C(c2c(F)cccc2OC)=NC3)ccc1C(=O)O`: 12.1% [middle of 5 runs].
In the case of `Cn1nccc1Nc1nccc(-c2cc3c(s2)C(C)(C)N(CCN2CCOCC2)C3=O)n1`, the viability, T/C is 69.1% [middle of 5 runs].
Still for that read-out and setting: the same measure for `O=C(c1cc(Cc2n[nH]c(=O)c3ccccc23)ccc1F)N1CCN(C(=O)C2CC2)CC1`: 81.6% [middle of 5 runs].

Staying with this experiment, now noted: compound 3.16 µM; stronger effect = lower value.
Take `CC(=O)OC12COC1CC(O)C1(C)C(=O)C(O)C3=C(C)C(OC(=O)C(O)C(NC(=O)OC(C)(C)C)c4ccccc4)CC(O)(C(OC(=O)c4ccccc4)C21)C3(C)C` (configuration not stated): the viability, T/C is 12.8% [middle of 5 runs].
Take `CC(C)NCC(C(=O)N1CCN(c2ncnc3c2C(C)CC3O)CC1)c1ccc(Cl)cc1` (configuration not stated): the viability, T/C was 37.9% [middle of 5 runs].
Same read-out and setting: with `CC1(C)CCC(CN2CCN(c3ccc(C(=O)NS(=O)(=O)c4ccc(NCC5CCOCC5)c([N+](=O)[O-])c4)c(Oc4cnc5[nH]ccc5c4)c3)CC2)=C(c2ccc(Cl)cc2)C1` the figure was 74.3% [middle of 5 runs]; with `COc1cc(Nc2ncc3c(n2)-c2ccc(Cl)cc2C(c2c(F)cccc2OC)=NC3)ccc1C(=O)O`, 12.5% [middle of 5 runs].
On the same count and under the same terms, the same measure for `Cn1nccc1Nc1nccc(-c2cc3c(s2)C(C)(C)N(CCN2CCOCC2)C3=O)n1`: 57.6% [middle of 5 runs]; for `O=C(c1cc(Cc2n[nH]c(=O)c3ccccc23)ccc1F)N1CCN(C(=O)C2CC2)CC1`: 41.5% [middle of 5 runs].

The experiment is the same for the next values; noted with them: compound 10 µM; stronger effect = lower value.
Turning to `CC(C)NCC(C(=O)N1CCN(c2ncnc3c2C(C)CC3O)CC1)c1ccc(Cl)cc1` (configuration not stated), the viability, T/C is 25.4% [middle of 5 runs].
The same measure, in the same setting: the same measure for `CC1(C)CCC(CN2CCN(c3ccc(C(=O)NS(=O)(=O)c4ccc(NCC5CCOCC5)c([N+](=O)[O-])c4)c(Oc4cnc5[nH]ccc5c4)c3)CC2)=C(c2ccc(Cl)cc2)C1`: 15.3% [middle of 5 runs]; for `CC1OCC2(CCN(c3cnc(Sc4ccnc(N)c4Cl)c(N)n3)CC2)C1N` (configuration not stated): 31.2% [middle of 19 runs]; for `COc1cc(Nc2ncc3c(n2)-c2ccc(Cl)cc2C(c2c(F)cccc2OC)=NC3)ccc1C(=O)O`: 14.5% [middle of 5 runs].
Still for that read-out and setting: the same measure for `COc1cc(OC)cc(N(CCNC(C)C)c2ccc3ncc(-c4cnn(C)c4)nc3c2)c1`: 0.42% [middle of 5 runs]; for `Cn1nccc1Nc1nccc(-c2cc3c(s2)C(C)(C)N(CCN2CCOCC2)C3=O)n1`: 43.9% [middle of 5 runs]; for `O=C(c1cc(Cc2n[nH]c(=O)c3ccccc23)ccc1F)N1CCN(C(=O)C2CC2)CC1`: 18.4% [middle of 5 runs].

Staying with this experiment, now noted: compound alone; run of 07/19/2021.
As for `CC1OCC2(CCN(c3cnc(Sc4ccnc(N)c4Cl)c(N)n3)CC2)C1N` (configuration not stated), the IC50 is 544 nM [middle of 5 runs].

The experiment is the same for the next values; noted with them: compound alone; run of 07/26/2021.
Turning to `CC1OCC2(CCN(c3cnc(Sc4ccnc(N)c4Cl)c(N)n3)CC2)C1N` (configuration not stated), the IC50 is 499 nM [middle of 6 runs].

Still in this experiment, the particulars now being: curve of compound.
As to `CC(=O)Nc1cccc(-n2c(=O)n(C3CC3)c(=O)c3c(Nc4ccc(I)cc4F)n(C)c(=O)c(C)c32)c1`, the IC50 was 11.7 nM [middle of 5 runs].
Same read-out and setting: the same measure for `CC(=O)OC12COC1CC(O)C1(C)C(=O)C(O)C3=C(C)C(OC(=O)C(O)C(NC(=O)OC(C)(C)C)c4ccccc4)CC(O)(C(OC(=O)c4ccccc4)C21)C3(C)C` (configuration not stated): less than 0.01 µM.
On the same count and under the same terms, with `CC(C)NCC(C(=O)N1CCN(c2ncnc3c2C(C)CC3O)CC1)c1ccc(Cl)cc1` (configuration not stated) the figure was 982 nM [middle of 5 runs].
On the same count and under the same terms, with `CC(C)n1nc(-c2ccc3oc(N)nc3c2)c2c(N)ncnc21` the figure was 9.11 nM [middle of 5 runs].
For the molecule `CC1(C)CCC(CN2CCN(c3ccc(C(=O)NS(=O)(=O)c4ccc(NCC5CCOCC5)c([N+](=O)[O-])c4)c(Oc4cnc5[nH]ccc5c4)c3)CC2)=C(c2ccc(Cl)cc2)C1`, the IC50 was 4.81 µM [middle of 5 runs].
The same measure, in the same setting: with `CC1OCC2(CCN(c3cnc(Sc4ccnc(N)c4Cl)c(N)n3)CC2)C1N` (configuration not stated) the figure was 1.05 µM [middle of 5 runs]; with `CCN1CCN(Cc2ccc(Nc3ncc(F)c(-c4cc(F)c5nc(C)n(C(C)C)c5c4)n3)nc2)CC1`, greater than 1 µM.
In the case of `CN(C)C/C=C/C(=O)Nc1cc2c(Nc3ccc(F)c(Cl)c3)ncnc2cc1O[C@H]1CCOC1`, the IC50 is greater than 0.1 µM.
`COc1cc(Nc2ncc3c(n2)-c2ccc(Cl)cc2C(c2c(F)cccc2OC)=NC3)ccc1C(=O)O`: the IC50 was less than 0.0316 µM.
Consider `Cn1nccc1Nc1nccc(-c2cc3c(s2)C(C)(C)N(CCN2CCOCC2)C3=O)n1`, for which the IC50 is 5.75 µM [middle of 5 runs].
On to `Cn1ncnc1[C@H]1c2n[nH]c(=O)c3cc(F)cc(c23)N[C@@H]1c1ccc(F)cc1`, for which the IC50 was 25.3 nM [middle of 5 runs].
The same measure, in the same setting: the same measure for `O=C(c1cc(Cc2n[nH]c(=O)c3ccccc23)ccc1F)N1CCN(C(=O)C2CC2)CC1`: 2.58 µM [middle of 5 runs].
